Measured values taken from ChEMBL document CHEMBL3988442, “University of Dundee, Small-Polar-MMV Screening Library” (2021).

Assays:
[1] = microbe, parasite or virus in culture; details: Mycobacterium tuberculosis, 72 h, read-out: pIC50 (converted)
[2] = microbe, parasite or virus in culture; details: Mycobacterium tuberculosis, 96 h, read-out: pIC50 (converted)

SMILES | IC50 [1] [µM] | IC50 [2] [µM]
COc1ccc(-c2noc(C3(O)CCCC3)n2)cn1 | 282 | 104
COc1ccc2c(c1)CN(C(=O)C1CCCOC1)CC2 (configuration not stated) | > 501 | > 501
CCNCc1ccc2c(c1)OCO2 | 280 | > 501
CC(=O)c1ccccc1NC(=O)CN1CC[C@H](N)C1 | 158 | > 501
COc1cccc(CNc2nc(C)no2)c1 | 180 | > 501
CN(CC1COc2ccccc2O1)C(=O)C1CCC1 (configuration not stated) | 182 | 173
Cc1cnc(C(=O)NCCSCc2ccco2)cn1 | > 501 | > 501
O=C(CC1COCCN1Cc1ccon1)c1cccs1 (configuration not stated) | 172 | > 501
NC[C@]12C[C@H]1CCN2Cc1ccccc1 | > 501 | 184
CC(NC(=O)CSc1nnnn1C1CC1)c1cccs1 (configuration not stated) | 433 | > 501
Cc1ccnc(NCCS(=O)(=O)NCC2CCC2)c1 | 265 | 117
O=C(NCCc1ccc(F)c(F)c1)N1CCCC(O)C1 (configuration not stated) | > 501 | > 501
CC(C)Cc1cc(C(=O)N(C)Cc2cnccn2)on1 | > 501 | > 501
COc1ccc(CN2C[C@H](O)[C@@H](N(C)C)C2)c(C)c1C | 105 | 349
CCCOc1ccc(NS(=O)(=O)N(C)C)cc1Cl | 196 | > 501
COc1cc(CN)cc(Br)c1OC | 78.5 | > 501
O=C(NCC(=O)N1CCCC1)c1csc2ccccc12 | 43.9 | 71.2
CN(C)CCNC(=O)c1ccc(Cl)cc1 | > 501 | > 501
COc1ccc(Br)c(S(=O)(=O)N(C)C)c1 | 358 | > 501
COc1c(Br)cccc1CCNC(=O)c1csnn1 | > 50.1 | > 50.1
CNS(=O)(=O)CC1CCCN1c1ncc(Br)cn1 (configuration not stated) | 289 | > 501
O=C(Cn1ccc(C(F)(F)F)n1)Nc1ccccn1 | 224 | > 501
O=C1CCCN1Cc1nnc(SCc2ccc3c(c2)CCC3)o1 | 22 | 46.5
COc1ccc(N2CCCN(CCC(N)=O)CC2)cc1 | 345 | 240
CCC1c2ccsc2CCN1C(=O)c1ccc(CN)o1 (configuration not stated) | 167 | 370
OCCCNC(c1ccccc1)c1ccccn1 (configuration not stated) | > 501 | > 501

SMILES | IC50 [1] [µM] | IC50 [2] [µM]
CN(C)C(=O)c1cc(-c2cccs2)on1 | > 501 | 254
CCOCCC(=O)N(C)Cc1cc(C(C)C)no1 | 169 | 372
CSc1ccc(C(CN)N(C)C)cc1 (configuration not stated) | 215 | 319
O=S(=O)(CCN1CC[C@@H](O)C1)c1cccc(Br)c1 | 112 | 146
Cc1csc(NC(=O)NC(CO)CC(C)C)n1 (configuration not stated) | 341 | 289
Cc1ccc(C(=O)N2CCN(c3nccs3)CC2)o1 | 157 | 183
CC(N)C(=O)N1CCC(Oc2ccccc2Cl)CC1 (configuration not stated) | 288 | 227
CN(C)c1nc(N)nc(CN2CCCC(c3ccccc3)CC2)n1 (configuration not stated) | > 50.1 | > 50.1
N#Cc1ccc(NC2CCN(c3ncccn3)CC2)cc1C(F)(F)F | 12.2 | 6.68
CNC(=O)c1cc(-c2ccccc2C)n[nH]1 | > 501 | 180
Cc1cn(Cc2nc(CC(C)C)nn2-c2ccccn2)c(=O)[nH]c1=O | > 50.1 | > 50.1
OCC(O)CSCc1ncc(-c2cccc(Cl)c2)o1 (configuration not stated) | 211 | > 501
NS(=O)(=O)NCCCc1ccc(Br)cc1F | 151 | 218
CC1CCN(C(=O)c2cnn(-c3cccnc3)c2)CC1 | 307 | 67.4
CNc1nc(C)cc(NCc2cc(C)cc3c(C)c(C)[nH]c23)n1 | 28 | 44.8
NC(=O)C1CCN(CCOc2ccc(Br)cc2)C1 (configuration not stated) | > 501 | > 501
NC1CCN(c2ncccc2Cl)C1 (configuration not stated) | 135 | 217
CCN1C(=O)C2(CCOCC2)c2cc(NC(=O)c3cnoc3C)ccc21 | > 50.1 | > 50.1
Cc1nc(C2CCCN2Cc2cc(Cl)c3c(c2)OCCO3)no1 (configuration not stated) | 22.3 | 15.9
COc1cc(Br)ccc1CCCNC(=O)c1c[nH]nn1 | 143 | 335
Cc1nccn1C1CCCN(C(=O)c2ccc(N3CCCC3)nn2)C1 (configuration not stated) | > 50.1 | > 50.1
C1CC(COCCc2noc(C3CNC3)n2)CCO1 | 337 | 279
COc1cc(C)sc1C(=O)NCCNc1ccccc1 | 5.82 | 4.3
Cn1cc(C(N)=O)c(NC(=O)c2ccc(Br)cc2)n1 | 257 | > 501
COCCOCCCNC(=O)c1cn2cc(C)nc2s1 | 271 | > 501
COc1cccc(CN(C)C(=O)c2occc2C)n1 | 188 | 279

SMILES | IC50 [1] [µM] | IC50 [2] [µM]
O=C(c1c[nH]c2ccccc2c1=O)N1CCSCC1 | 27.8 | > 50.1
c1ccc(-c2cc(CN3C[C@@H]4CC[C@H](C3)N(CC3CC3)C4)on2)cc1 | 24.3 | 24.8
CN(C)S(=O)(=O)N(CCO)Cc1ccc(Cl)c(Cl)c1 | 216 | 308
CCN(C)S(=O)(=O)N(CC)CC(O)c1ccc(C)cc1 (configuration not stated) | 334 | 293
CN(C(=O)c1ccccc1)S(=O)(=O)c1ccccc1 | 280 | 303
CCCn1c(O)nnc1SCc1cccc(OC)n1 | 256 | 436
CCC(CO)NC(=O)C1(c2ccc(F)cc2F)CCC1 (configuration not stated) | 313 | > 501
NC(c1cncc(Br)c1)C1CC1 (configuration not stated) | > 501 | > 501
COCCOCCNC(=O)C(C)Oc1ccccc1C(F)(F)F (configuration not stated) | > 50.1 | > 50.1
COc1ncccc1CN(C)S(=O)(=O)c1cccs1 | 159 | 286
CCOC(=O)C(C)Nc1ccc2oc(=O)[nH]c2c1 (configuration not stated) | 311 | 292
CCOc1cccc(CCN)n1 | 234 | > 501
CN(C)S(=O)(=O)c1ccc(F)c(NC(=O)COCC2CC2)c1 | 10.3 | > 50.1
CC(N)c1nc(-c2ccc(Br)cc2)c[nH]1 (configuration not stated) | 99.7 | 242
CC(Cn1cccn1)NCc1csc(-c2ccc3c(c2)OCO3)n1 (configuration not stated) | 1.35 | > 50.1
CC(O)CN1C(=O)C=CC1=O (configuration not stated) | 135 | 286
COCCN(C)CC1CCCN1S(=O)(=O)c1cccc(F)c1F (configuration not stated) | 15 | > 50.1
CCCn1nnnc1NCc1ccc(C)s1 | 64.7 | 51.8
Brc1cccc2c1CNCCO2 | 213 | > 501
Cc1cc(C(=O)NCC(CO)c2ccccc2)ns1 (configuration not stated) | 103 | 130
CN(C)S(=O)(=O)c1ccc(CN2CCC(C(N)=O)CC2)o1 | > 50.1 | > 50.1
CCOc1ccccc1NC(=O)CSc1c[nH]nn1 | > 501 | 195
O=C1[C@H]2CN(Cc3ccco3)C[C@H]2CN1c1ccsc1 | 8.77 | 14.2
O=C(CC1CC1)N[C@@H]1CN(Cc2ccoc2)C[C@@H]2CCCO[C@@H]21 | > 50.1 | > 50.1
